The values that follow come from PubChem BioAssay (NCI).

Among the test systems are SK-MEL-28 melanoma; 786-0 renal; TK-10 renal; CAKI-1 renal; SF-539 CNS; HOP-62 NSCLC; NCI-H522 lung; T-47D breast.
Common to all, as to experiment: NCI tumour cell line growth inhibition, 48 h

Values joined by “and” are separate entries in the source; they are usually repeats but may differ in a detail not shown here. Equal entries are not always repeated.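 Five compound concentrations were applied to cells in 96-well plates for 48 hours; endpoints were derived by simple linear interpolation of the resulting dose-response curve. GI50 is the concentration that inhibits growth by half. The concentration for full growth arrest is given as TGI.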

As to `COc1ccc2c(c1)-c1c(c3cc(OC)ccc3n(CCN(C)C)c1=O)C2=O`, the GI50 with SK-MEL-28 melanoma was 2.59 µM; with 786-0 renal, 2.35 µM; in the experiment with TK-10 renal, 1.65 µM; in the experiment with CAKI-1 renal it was 1.77 µM; in the experiment with SF-539 CNS, 1.99 µM; in the experiment on HOP-62 NSCLC, 0.676 µM. Besides, the GI50 in the experiment on NCI-H522 lung is 0.0843 µM; in the experiment with T-47D breast, 3.23 µM. In addition, the TGI was found to be 8.73 µM in the experiment with SK-MEL-28 melanoma; 9.42 µM in the experiment with 786-0 renal; 6.98 µM with TK-10 renal; 18.8 µM with CAKI-1 renal; 8.58 µM in the experiment on SF-539 CNS; 12.1 µM in the experiment with HOP-62 NSCLC. In addition, the TGI was 0.59 µM in the experiment with NCI-H522 lung and 11.4 µM in the experiment on T-47D breast.

In the case of `O=C1NC(=NCCc2ccc(Br)cc2)S/C1=C\c1ccc2ncccc2c1`, the GI50 with SK-MEL-28 melanoma was greater than 25 µM; with 786-0 renal, greater than 25 µM; with TK-10 renal, greater than 20.1 µM; in the experiment on CAKI-1 renal, greater than 20.3 µM; in the experiment on SF-539 CNS, 14.5 µM; in the experiment on HOP-62 NSCLC it was greater than 25 µM. The GI50 in the experiment with NCI-H522 lung is 12.9 µM; with T-47D breast, greater than 17.1 µM. For the same compound, the TGI in the experiment on SK-MEL-28 melanoma, in the experiment with 786-0 renal, in the experiment with TK-10 renal, with CAKI-1 renal, in the experiment on SF-539 CNS and with HOP-62 NSCLC was greater than 25 µM throughout. Also, the TGI in the experiment with NCI-H522 lung and in the experiment on T-47D breast was greater than 25 µM in each case.

For `CCC(c1ccccc1)c1cc(C(C)(C)C)cc(C(C)(C)C)c1O` (stereo unspecified), the TGI turned out to be 32.5 µM with SK-MEL-28 melanoma; 29 µM in the experiment on 786-0 renal; 28.8 µM with TK-10 renal; 29.8 µM in the experiment on CAKI-1 renal; 34.2 µM with SF-539 CNS; 29.7 µM in the experiment on HOP-62 NSCLC. The values for the TGI in the experiment with NCI-H522 lung and in the experiment on T-47D breast were 27.2 µM and 29.6 µM, respectively.

As for `CCC(=O)Nc1nnc(Cc2ccc(OC)c(OC)c2)s1`, the GI50 in the experiment on SK-MEL-28 melanoma, in the experiment with 786-0 renal, with TK-10 renal, in the experiment on CAKI-1 renal, in the experiment with SF-539 CNS and in the experiment on HOP-62 NSCLC was greater than 100 µM throughout. In addition, the GI50 in the experiment with NCI-H522 lung and with T-47D breast was greater than 100 µM in each case. The TGI in the experiment on SK-MEL-28 melanoma, in the experiment on 786-0 renal, in the experiment on TK-10 renal, in the experiment on CAKI-1 renal, in the experiment on SF-539 CNS and in the experiment on HOP-62 NSCLC was greater than 100 µM each time. Also, the TGI in the experiment with NCI-H522 lung and with T-47D breast was greater than 100 µM in each case.

Consider `COc1ccc2c(c1)/C(=N/OC(C)=O)c1c-2c(OC)nc2ccccc12`, for which the GI50 in the experiment on SK-MEL-28 melanoma is greater than 100 µM; in the experiment on 786-0 renal, greater than 100 µM; in the experiment with TK-10 renal it was 79.1 µM; in the experiment on CAKI-1 renal, greater than 100 µM; in the experiment on SF-539 CNS, 72.9 µM; in the experiment on HOP-62 NSCLC it was 83.7 µM. Moreover, the GI50 in the experiment with NCI-H522 lung is greater than 100 µM; in the experiment with T-47D breast, 27.7 µM. The TGI in the experiment with SK-MEL-28 melanoma, with 786-0 renal, with TK-10 renal, with CAKI-1 renal, in the experiment with SF-539 CNS and in the experiment with HOP-62 NSCLC was greater than 100 µM throughout. Also, the TGI with NCI-H522 lung and in the experiment on T-47D breast was greater than 100 µM in each case.

Turning to `Cc1ccc(-c2nc3sc(C)cn3c2/C=C2\C(=O)Nc3ccc(Cl)cc32)cc1`, the GI50 with SK-MEL-28 melanoma is 18 µM; in the experiment with 786-0 renal, 10.3 µM; with TK-10 renal, 9.28 µM; in the experiment on CAKI-1 renal, 17 µM; in the experiment on SF-539 CNS, 4.51 µM; with HOP-62 NSCLC it was 7.21 µM. Moreover, the GI50 was 15.5 µM with NCI-H522 lung and 42.2 µM in the experiment on T-47D breast. Moreover, the TGI in the experiment on SK-MEL-28 melanoma is 34.5 µM; in the experiment on 786-0 renal, 22 µM; in the experiment with TK-10 renal it was 24.7 µM; in the experiment with CAKI-1 renal, 38.2 µM; in the experiment on SF-539 CNS, 17.3 µM; in the experiment with HOP-62 NSCLC, 20.8 µM. Moreover, the TGI was 30.1 µM in the experiment on NCI-H522 lung and greater than 100 µM in the experiment on T-47D breast.

Take `C=CCSC(C)=O`: the TGI in the experiment on SK-MEL-28 melanoma, with 786-0 renal, in the experiment on TK-10 renal, in the experiment with CAKI-1 renal, in the experiment with SF-539 CNS and in the experiment with HOP-62 NSCLC was greater than 100 µM each time. Also, the TGI in the experiment on NCI-H522 lung and in the experiment on T-47D breast was greater than 100 µM throughout.

For `CNC(=O)c1cc(Oc2ccc(NC(=O)Nc3cc(C(C)(C)C)nn3-c3ccc4ncccc4c3)c(F)c2)ccn1`, the GI50 in the experiment on SK-MEL-28 melanoma is 0.264 µM and 0.297 µM; in the experiment with 786-0 renal it was 2.69 µM and 3.08 µM; in the experiment with TK-10 renal it was 1.83 µM and 1.7 µM; in the experiment with CAKI-1 renal it was 0.523 µM and 0.699 µM; with SF-539 CNS it was 2 µM and 1.71 µM; in the experiment with HOP-62 NSCLC, 2.24 µM and 2.2 µM. Besides, the GI50 in the experiment on NCI-H522 lung was 1.78 µM and 2.2 µM; with T-47D breast it was 0.907 µM and 1.79 µM. Also, the TGI with SK-MEL-28 melanoma is 2.62 µM and 2.8 µM; with 786-0 renal it was 8.13 µM and 8.95 µM; with TK-10 renal, 6.79 µM and 6.93 µM; in the experiment with CAKI-1 renal, 4.65 µM and 4.32 µM; in the experiment on SF-539 CNS, 4.62 µM and 3.66 µM; in the experiment with HOP-62 NSCLC, 7.56 µM and 7.34 µM. Also, the TGI was 4.91 µM and 5.31 µM in the experiment with NCI-H522 lung; 7.17 µM and > 29.3 µM in the experiment on T-47D breast.

With `Fc1ccc(Nc2nc(Nc3ccc(-c4nc5ccccc5[nH]4)cc3)c3cn[nH]c3n2)cc1`, the GI50 is 1.88 µM with SK-MEL-28 melanoma; 1.63 µM with 786-0 renal; 2.29 µM in the experiment with TK-10 renal; 1.97 µM in the experiment with CAKI-1 renal; 1.77 µM in the experiment on SF-539 CNS; 2.04 µM with HOP-62 NSCLC. Further, the GI50 in the experiment with NCI-H522 lung was 1.61 µM; with T-47D breast, 1.9 µM. In addition, the TGI in the experiment with SK-MEL-28 melanoma was 3.78 µM; in the experiment on 786-0 renal, 3.11 µM; in the experiment on TK-10 renal it was 5.29 µM; with CAKI-1 renal, 5.41 µM; with SF-539 CNS, 3.48 µM; in the experiment on HOP-62 NSCLC it was 5.02 µM. Further, the TGI in the experiment with NCI-H522 lung amounted to 4.02 µM; with T-47D breast, 5 µM.

Turning to `COc1ccc(/C=C/c2ccnc3ccccc23)cc1OC`, the TGI is 31.7 µM in the experiment with SK-MEL-28 melanoma; greater than 100 µM in the experiment on 786-0 renal; 28.9 µM in the experiment with TK-10 renal; 29.3 µM in the experiment on CAKI-1 renal; 30 µM in the experiment on SF-539 CNS; 28.5 µM in the experiment with HOP-62 NSCLC. The values for the TGI with NCI-H522 lung and with T-47D breast were 23.2 µM and 74.5 µM, respectively.
